Key:
Experiment in all cases: KiNativ profiling in H3255 cells
Format in all cases: cell-based, human
PIK3C2B = system: T1, PIK3C2B; conditions: 2.5 µM; ATP; VIFKCGDDLRQDMLTLQMIR
T1 construct: purchased ActivX Biosciences (KiNativ)
Protocol: (§1) H3255 cells were plated with 6.5x10^6 per condition in fresh media in 15 cm plates and treated the 80% confluency for 2 hours with DMSO or 2.5 μM of ZNL-0056. To harvest cells, plates were washed 3 times with cold PBS, then collected by scraping into 4 mL of cold PBS containing protease and phosphatase inhibitors. Cells were pelleted by centrifugation at 1350 g at 4 ℃ for 5 minutes and immediately frozen in liquid nitrogen. The frozen samples were sent to ActivX Biosciences (La Jolla, CA) for the remainder of the KiNativ profiling experiment4. […]

ABL, ARG = conditions: 2.5 µM
Protocol: as §1

PCTAIRE2, PCTAIRE3 = conditions: 2.5 µM; Lys1; SKLTENLVALKEIR
Protocol: as §1

MST2 = system: T2, MST2; conditions: 2.5 µM; Lys1; ESGQVVAIKQVPVESDLQEIIK
T2 construct: purchased ActivX Biosciences (KiNativ)
Protocol: as §1

MAPKAPK2, MAPKAPK3 = conditions: 2.5 µM; Lys2; DVKPENLLYTSK
Protocol: as §1

MAPKAPK3 = system: T3, MAPKAPK3; conditions: 2.5 µM; ATP Loop; QVLGLGVNGKVLECFHR
T3 construct: purchased ActivX Biosciences (KiNativ)
Protocol: as §1

Erk2 = system: T4, Erk2; conditions: 2.5 µM; Lys2; DLKPSNLLLNTTCDLK
T4 construct: purchased ActivX Biosciences (KiNativ)
Protocol: as §1

NEK4 = system: T5, NEK4; conditions: 2.5 µM; Lys2; DLKTQNVFLTR
T5 construct: purchased ActivX Biosciences (KiNativ)
Protocol: as §1

PLK2 = system: T6, PLK2; conditions: 2.5 µM; Lys2; DLKLGNFFINEAMELK
T6 construct: purchased ActivX Biosciences (KiNativ)
Protocol: as §1

CRK7 = system: T7, CRK7; conditions: 2.5 µM; Lys2; DIKCSNILLNNSGQIK
T7 construct: purchased ActivX Biosciences (KiNativ)
Protocol: as §1

CHK1 = system: T8, CHK1; conditions: 2.5 µM; Lys2; DIKPENLLLDER
T8 construct: purchased ActivX Biosciences (KiNativ)
Protocol: as §1

NEK6, NEK7 = conditions: 2.5 µM; Lys2; DIKPANVFITATGVVK
Protocol: as §1

PCTAIRE1, PCTAIRE3 = conditions: 2.5 µM; Lys2; DLKPQNLLINER
Protocol: as §1

CK1d, CK1e = conditions: 2.5 µM; Lys2; DVKPDNFLMGLGKK
Protocol: as §1

HER3/ErbB3 = system: T9, HER3/ErbB3; conditions: 2.5 µM
T9 construct: purchased ActivX Biosciences (KiNativ)
Protocol: as §1

RSK2 domain2 = system: T10, RSK2 domain2; conditions: 2.5 µM; Lys2; DLKPSNILYVDESGNPESIR
T10 construct: RSK2 domain2; purchased ActivX Biosciences (KiNativ)
Protocol: as §1

SBK = system: T11, SBK; conditions: 2.5 µM; Lys2; DIKPENVLLFDR
T11 construct: purchased ActivX Biosciences (KiNativ)
Protocol: as §1

RIPK2 = system: T12, RIPK2; conditions: 2.5 µM; Lys1; VQVAVKHLHIHTPLLDSER
T12 construct: purchased ActivX Biosciences (KiNativ)
Protocol: as §1

MAP2K4 = system: T13, MAP2K4; conditions: 2.5 µM
T13 construct: purchased ActivX Biosciences (KiNativ)
Protocol: as §1

EphB2 = system: T14, EphB2; conditions: 2.5 µM; Activation Loop; FLEDDTSDPTYTSALGGKIPIR
T14 construct: purchased ActivX Biosciences (KiNativ)
Protocol: as §1

MLK3 = system: T15, MLK3; conditions: 2.5 µM; Lys2; DLKSNNILLLQPIESDDMEHK
T15 construct: purchased ActivX Biosciences (KiNativ)
Protocol: as §1

LATS1 = system: T16, LATS1; conditions: 2.5 µM
T16 construct: purchased ActivX Biosciences (KiNativ)
Protocol: as §1

Wee1 = system: T17, Wee1; conditions: 2.5 µM; Lys2; YIHSMSLVHMDIKPSNIFISR
T17 construct: purchased ActivX Biosciences (KiNativ)
Protocol: as §1

PIK3C3 = system: T18, PIK3C3; conditions: 2.5 µM; ATP; TEDGGKYPVIFKHGDDLRQDQLILQIISLMDK
T18 construct: purchased ActivX Biosciences (KiNativ)
Protocol: as §1

EphA2 = system: T19, EphA2; conditions: 2.5 µM; Activation Loop; VLEDDPEATYTTSGGKIPIR
T19 construct: purchased ActivX Biosciences (KiNativ)
Protocol: as §1

PEK = system: T20, PEK; conditions: 2.5 µM; Lys2; DLKPSNIFFTMDDVVK
T20 construct: purchased ActivX Biosciences (KiNativ)
Protocol: as §1

MLKL = system: T21, MLKL; conditions: 2.5 µM; Lys1; APVAIKVFK
T21 construct: purchased ActivX Biosciences (KiNativ)
Protocol: as §1

MELK = system: T22, MELK; conditions: 2.5 µM; Lys2; DLKPENLLFDEYHK
T22 construct: purchased ActivX Biosciences (KiNativ)
Protocol: as §1

SRPK1 = system: T23, SRPK1; conditions: 2.5 µM; Lys2; IIHTDIKPENILLSVNEQYIR
T23 construct: purchased ActivX Biosciences (KiNativ)
Protocol: as §1

MST1 = system: T24, MST1; conditions: 2.5 µM; Lys1; ETGQIVAIKQVPVESDLQEIIK
T24 construct: purchased ActivX Biosciences (KiNativ)
Protocol: as §1

[1] = system: ZC1/HGK, ZC2/TNIK, ZC3/MINK; conditions: 2.5 µM; Lys2; DIKGQNVLLTENAEVK
Protocol: as §1

NEK1 = system: T25, NEK1; conditions: 2.5 µM; Lys2; DIKSQNIFLTK
T25 construct: purchased ActivX Biosciences (KiNativ)
Protocol: as §1

[2] = Activation Loop, LMTGDTYTAHAGAKFPIK
[3] = Activation Loop, SPSQVQVADFGVADLLPPDDKQLLYSEAKTPIK

SMILES | Inhibition (PIK3C2B) [%] | Inhibition (ABL, ARG; [2]) [%] | Inhibition (ABL, ARG; Lys1, YSLTVAVKTLKEDTMEVEEFLK) [%] | Inhibition (PCTAIRE2, PCTAIRE3) [%] | Inhibition (MST2) [%] | Inhibition (MAPKAPK2, MAPKAPK3) [%] | Inhibition (MAPKAPK3) [%] | Inhibition (Erk2) [%] | Inhibition (NEK4) [%] | Inhibition (PLK2) [%] | Inhibition (CRK7) [%] | Inhibition (CHK1) [%] | Inhibition (NEK6, NEK7) [%] | Inhibition (PCTAIRE1, PCTAIRE3) [%] | Inhibition (CK1d, CK1e) [%] | Inhibition (HER3/ErbB3; [3]) [%] | Inhibition (HER3/ErbB3; Lys1, GVWIPEGESIKIPVCIKVIEDK) [%] | Inhibition (RSK2 domain2) [%] | Inhibition (SBK) [%] | Inhibition (RIPK2) [%] | also measured
C=CC(=O)Nc1cc(C(=O)Nc2nc3cccc(C)c3n2[C@@H]2CCCCN(C(=O)C=C)C2)cs1 [ZNL-0056] | -9.6 | -3.8 | 17.1 | -16.7 | -6.8 | -7.9 | 4.1 | -24.2 | 7.6 | 18.8 | -9.2 | -8.1 | 0.45 | -3.3 | 10.8 | 25.6 | -12.4 | 4.0 | 9.6 | -9.6 | Inhibition (MAP2K4; Lys1, MVHKPSGQIMAVKR): 5.7%; Inhibition (MAP2K4; Lys2, DIKPSNILLDR): 2.6%; Inhibition (EphB2): -8.5%; Inhibition (MLK3): 26.8%; Inhibition (LATS1; Lys1, ALYATKTLR): 3.8%; Inhibition (LATS1; Lys2, DIKPDNILIDR): 20.9%; Inhibition (Wee1): 13.4%; Inhibition (PIK3C3): 6.7%; Inhibition (EphA2): 13.2%; Inhibition (PEK): -15.1%; Inhibition (MLKL): 4.5%; Inhibition (MELK): 23.0%; Inhibition (SRPK1): 2.6%; Inhibition (MST1): -5.5%; Inhibition [1]: 9.3%; Inhibition (NEK1): -5.2%
C=CC(=O)Nc1cc(Nc2nccc(-c3cn(C)c4ccccc34)n2)c(OC)cc1N(C)CCN(C)C [Osimertinib, osimertinib, reference compound] | 1.3 | 8.4 | 4.3 | -33.1 | -13.5 | -28.4 | -14.1 | 1.9 | -12.6 | 10.4 | 31.9 | 15.0 | -8.8 | 8.7 | 6.2 | -24.2 | -64.6 | -16.8 | -14.3 | 51.7 | Inhibition (MAP2K4; Lys1, MVHKPSGQIMAVKR): 12.0%; Inhibition (MAP2K4; Lys2, DIKPSNILLDR): 30.7%; Inhibition (EphB2): 1.1%; Inhibition (MLK3): -1.5%; Inhibition (LATS1; Lys1, ALYATKTLR): -8.1%; Inhibition (LATS1; Lys2, DIKPDNILIDR): 5.0%; Inhibition (Wee1): 6.4%; Inhibition (PIK3C3): -7.5%; Inhibition (EphA2): 18.1%; Inhibition (PEK): 7.8%; Inhibition (MLKL): -10.0%; Inhibition (MELK): -15.3%; Inhibition (SRPK1): 2.2%; Inhibition (MST1): -24.9%; Inhibition [1]: 16.3%; Inhibition (NEK1): -34.8%

From PMC11212140, “Molecular Bidents with Two Electrophilic Warheads as a New Pharmacological Modality” (ACS Central Science, 2024)
